Structures can show the parent of a compound that is named as a salt.
How the values were obtained:
[1] = system: TNFa; test: TNFa ELISA, PBMC, Resiquimod (R848) stimulated; type: cell-based; conditions: 10 pt curve
[2] = system: TNFa; test: TNFa ELISA, dendritic cells, Gardiquimod stimulated; type: cell-based; conditions: Homo sapiens, Dendritic cell, 10 pt curve
[3] = biological target: IRAK1 (Homo sapiens, UniProt P51617); test: IRAK1 ADP-Glo Kinase assay; type: biochemical; conditions: 8 pt curve
[4] = biological target: T1, IRAK4 (Homo sapiens, UniProt Q9NWZ3); test: IRAK4 ADP-Glo assay; type: biochemical; conditions: 8 pt curve; read-out: IRAK4 ADP-Glo Kinase, 8 pt
T1 construct: purchased Signalchem I12-10G-20
T1 sequence (Q9NWZ3 1-460): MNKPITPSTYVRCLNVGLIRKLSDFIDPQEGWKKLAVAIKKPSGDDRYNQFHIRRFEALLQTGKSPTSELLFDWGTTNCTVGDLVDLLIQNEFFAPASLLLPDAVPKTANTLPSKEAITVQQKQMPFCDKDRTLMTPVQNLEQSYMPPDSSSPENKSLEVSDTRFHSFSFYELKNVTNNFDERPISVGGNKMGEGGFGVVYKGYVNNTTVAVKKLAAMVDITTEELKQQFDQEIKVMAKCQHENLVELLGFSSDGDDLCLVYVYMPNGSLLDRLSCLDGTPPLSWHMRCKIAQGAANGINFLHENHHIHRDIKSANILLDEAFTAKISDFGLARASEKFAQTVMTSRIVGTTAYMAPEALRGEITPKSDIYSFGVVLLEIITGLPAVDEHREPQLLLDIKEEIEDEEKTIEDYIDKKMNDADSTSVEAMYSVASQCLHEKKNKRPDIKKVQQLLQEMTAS
Experimental: IRAK4 Kinase Enzyme (Signalchem, I12-10G-20); 0.1M DTT (Signalchem, D86-09B); MBP Substrate (Signalchem, M42-51N); ADP Glo (Promega, V9101); 1M MgCl2 (Teknova, M03304); 1M Tris-HCl pH7.4 (Teknova, T1074); BSA (Sigma (A3059); Distilled H2O
Wallac Victor2 1420 Multilabel Counter
The ADP-Glo™ reagents were thawed at ambient temperature. The Kinase Detection Reagent was prepared by mixing kinase detection buffer with the lyophilized kinase detection substrate, and set aside.
A stock volume of 5× Reaction Kinase Buffer was made with a final concentration of 100 mM MgCl2, 200 mM Tris-HCl, and 0.5 mg/ml of BSA, in distilled H2O with a final pH7.4. A 2× working stock volume of Reaction Kinase Buffer was made containing a final concentration of […].
The components of IRAK4 Enzyme were thawed on ice. Diluted IRAK4 in 1× Kinase Reaction Buffer (diluted from 2× buffer) was prepared at […]. A […] working stock ATP Assay Solution was prepared in 1× Kinase Reaction Buffer (diluted from 2× buffer).
The compound was diluted in DMSO from 250 µM in 4-fold series dilutions for 8 points. Then diluted 1:5 in 2× Reaction Buffer in a 96 well plate. 1.01 was transferred to a 384 well plate in duplicate. […] 1 μl of 1 mg/ml stock solution of MBP substrate was added NOTE: MBP can be combined with ATP mix with equal volume and then added at 2 d/well. Final reaction volume was 5 μl.
The plate was centrifuged and the reaction mixture was incubated at room temperature for 60 minutes or at 30° C. for 30 minutes.
The reaction was terminated and the remaining ATP was depleted by adding 5 μl of ADP-Glo™ Reagent. The 384-well plate was centrifuged and then the reaction mixture was incubated for another 40 minutes at ambient temperature.
10 μl of the Kinase Detection Reagent was added. The plate was centrifuged and then the reaction mixture was incubated for another 30 minutes at ambient temperature.
The 384-well reaction plate was read using the WALLAC plate reader (Luminescence 0.1s).

[5] = system: IL23-p19; test: LPS induced IL23p19 in THP-1 cells (IFNγ primed), sandwich ELISA; type: cell-based; conditions: Homo sapiens; THP-1 cells primed with IFNγ, LPS 1 μg/mL, 10 pt curve; read-out: IL23-p19 ELISA, THP1-IFNy, LPS, 10 pt
From the text: LPS Induced IL23p19 in THP-1 Cells (with IFNγ Primed) Assay
THP-1 Cells (ATCC, Cat #TIB-202), Dimethyl Sulfoxide (DMSO) (Sigma-Aldrich, Cat #D2650), RPMI 1640 (Cellgro, Cat #10-040-CM), Fetal Bovine Serum (Sigma, Cat #F4135), Albumin From Bovine Serum (BSA) (Sigma-Aldrich, Cat #A7906), LPS (Serotype K-235, Sigma, Product Number L 2143), IFNγ (Peprotech, Cat #300-02), Capture antibody: Human IL-23p19 ELISA (e-Bioscience, Cat. #14-7238-85), Detection antibody: Primary Mouse Biotinylated anti-human IL-12(p40/p70) (e-Bioscience, Cat. #13-7129-85), Secondary HRP-conjugated Streptavidin (R&D Systems, Cat #DY998), 1×PBST Washing Buffer (PBS-Tween tablet) (VWR International, Cat #80058-558), ELISA Blocking Buffer (PBS with 1% BSA), ELISA Dilution Buffer (PBS with 1% BSA), 384 Well Flat-Bottom, MaxiSorp Black Immuno Plates (Thermo Scientific, Cat #12-565-346), 384 Well Flat-Bottom, White Tissue Culture Plates (Thermo Scientific, Cat #12-565-343), Super Signal ELISA Pico Chemiluminescent Substrate (Thermo Scientific, Cat #37070), Cell Titer Glo reagent (Promega, Cat #G7573), Positive control, IKK2VI inhibitor (Calbiochem, Cat #401483), AquaMax 4000 plate washer (Molecular Devices), Luminometer, Wallac Victor2 1420 Multilabel Counter.
On day 1, 50K/well THP-1 cells were seeded and primed with IFNγ (50 ng/mL) in 384-well plates for about 18 hours in RPMI media with 10% FBS. On day 2, the compound was serially diluted in DMSO from 5 mM in 3-fold dilutions, and then diluted 1:125 in RPMI media with 10% FBS. 50 μL/well 2× compound was added to 50 μL/well THP-1 cells (with IFNγ primed) in duplicate in 384 well tissue culture plates. The cells were pre-incubated with compound for 1 hour at 37° C., 5% CO2 before addition of 10 μL/well 11×LPS to give a final concentration of 1 μg/mL LPS. Day 3, after stimulation for 18 hours at 37° C., 5% CO2, the assay plate was centrifuged and 70 μL/well supernatant was harvested. IL-23p19 protein in 70 μL/well of supernatant was measured by sandwich ELISA, and 25 μl/well Cell Titer Glo reagent was added to the remaining cells to measure compound toxicity.
Human IL-23p19 Sandwich ELISA:
Maxisorp immuno ELISA plates were pre-coated with 25 μL/well of anti-IL-23p19 capture antibody (2.5 ug/mL) in PBS overnight at room temperature. After washing with 1×PBST, the plates were blocked using 100 μL/well of 1% BSA in PBS for 2 hours at room temperature. The plates were washed three times with 1×PBST and 70 μL/well supernatant were added. The plates were incubated at room temperature for 2 hours with shaking and washed three times with 1×PBST. 25 μL/well of biotin labeled anti-IL-12(p40/p70) detection antibody (100 ng/mL) in PBS with 1% BSA was added and the plates were incubated at room temperature for 2 hours with shaking. After washing three times with 1×PBST, 25 μL/well of streptavidin-HRP (1:200) in PBS with 1% BSA was added and the plates were incubated at room temperature for 20 minutes with shaking. The plates were washed three times with 1×PBST and 25 μL/well of Super Signal ELISA Pico Chemiluminescent Substrate were added. The plates were read with a luminometer, and the chemiluminescence values were entered into Athena (Rigel) for curve fitting, EC50 calculation, and database storage.

[6] = system: TNFa; test: TNFa ELISA, THP1-IFNy, LTA stimulated; type: cell-based; conditions: 10 pt curve

Sequence of IRAK1 (P51617 whole entry): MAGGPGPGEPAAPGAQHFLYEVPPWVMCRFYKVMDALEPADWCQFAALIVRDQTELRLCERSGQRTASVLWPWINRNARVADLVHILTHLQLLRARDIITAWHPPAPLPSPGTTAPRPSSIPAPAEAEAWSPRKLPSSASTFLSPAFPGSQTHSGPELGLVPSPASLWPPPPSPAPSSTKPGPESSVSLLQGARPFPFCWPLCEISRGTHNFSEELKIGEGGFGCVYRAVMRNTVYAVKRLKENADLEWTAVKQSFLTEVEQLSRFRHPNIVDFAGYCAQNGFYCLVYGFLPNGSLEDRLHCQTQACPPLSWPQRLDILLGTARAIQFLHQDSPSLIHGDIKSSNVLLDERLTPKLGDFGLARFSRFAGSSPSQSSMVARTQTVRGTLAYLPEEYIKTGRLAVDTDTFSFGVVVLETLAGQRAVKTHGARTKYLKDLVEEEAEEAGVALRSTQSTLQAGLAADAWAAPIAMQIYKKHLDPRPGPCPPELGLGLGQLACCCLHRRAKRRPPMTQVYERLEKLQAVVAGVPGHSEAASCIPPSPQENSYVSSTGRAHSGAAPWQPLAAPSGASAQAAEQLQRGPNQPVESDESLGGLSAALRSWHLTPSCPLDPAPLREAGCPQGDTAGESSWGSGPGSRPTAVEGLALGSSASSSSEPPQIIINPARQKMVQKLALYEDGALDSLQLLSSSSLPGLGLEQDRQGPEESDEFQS

| SMILES | EC50 [1] [nM] | EC50 [2] [nM] | IC50 [3] [nM] | IC50 [4] [nM] | EC50 [5] [nM] | EC50 ([1]; formic acid salt) [nM] | EC50 [6] [nM] |
| --- | --- | --- | --- | --- | --- | --- | --- |
| O=C1CC[C@@H](COc2nccc3cc4c(=O)[nH]cc(CC(F)F)c4cc23)N1 [I-17, (S)-4-(2,2-difluoroethyl)-6-((5-oxopyrrolidin-2-yl)methoxy)pyrido[3,4-g]isoquinolin-1(2H)-one] | 360 | 607 | 10600 | 21.4 | 16100 |  |  |
| O=C1CC[C@@H](COc2nccc3cc4c(=O)[nH]cc(C(F)(F)F)c4cc23)N1 [I-30, (S)-6-((5-oxopyrrolidin-2-yl)methoxy)-4-(trifluoromethyl)pyrido[3,4-g]isoquinolin-1(2H)-one] | 2020 | 18300 |  | 212 | 2260 |  |  |
| Cc1c[nH]c(=O)c2cc3ccnc(OC[C@@H]4CCC(=O)N4)c3cc12 [I-25, (S)-4-methyl-6-((5-oxopyrrolidin-2-yl)methoxy)pyrido[3,4-g]isoquinolin-1(2H)-one] | 392 | 6220 |  | 69.2 | 79.6 |  |  |
| CC#Cc1c[nH]c(=O)c2cc3ccnc(OC[C@@H]4CCC(=O)N4)c3cc12 [I-24, (S)-6-((5-oxopyrrolidin-2-yl)methoxy)-4-(prop-1-yn-1-yl)pyrido[3,4-g]isoquinolin-1(2H)-one] | 283 | 316 |  | 55.7 | 377 |  |  |
| Cc1c[nH]c(=O)c2cc3ccnc(OC[C@@H]4CCC(=O)N4)c3cc12 [I-2, (S)-4-methyl-6-((5-oxopyrrolidin-2-yl)methoxy)pyrido[3,4-g]isoquinolin-1(2H)-one formic acid salt] |  |  | 3840 | 6.7 |  | 135 | 274 |
| O=C1CC[C@@H](COc2nccc3cc4c(=O)[nH]cc(CCO)c4cc23)N1 [I-22, (S)-4-(2-hydroxyethyl)-6-((5-oxopyrrolidin-2-yl)methoxy)pyrido[3,4-g]isoquinolin-1(2H)-one] | 4470 | 2010 | 9080 | 10.4 | 6980 |  |  |
| O=C1CC[C@@H](COc2nccc3cc4c(=O)[nH]cc(C#CCO)c4cc23)N1 [I-21, (S)-4-(3-hydroxyprop-1-yn-1-yl)-6-((5-oxopyrrolidin-2-yl)methoxy)pyrido[3,4-g]isoquinolin-1(2H)-one] | 422 | 1500 | 777 | 5.8 | 778 |  |  |
| O=C1CC[C@@H](COc2nccc3cc4c(=O)[nH]cc(C5CC5)c4cc23)N1 [I-14, (S)-4-cyclopropyl-6-((5-oxopyrrolidin-2-yl)methoxy)pyrido[3,4-g]isoquinolin-1(2H)-one] | 187 | 196 | 4770 | 4.9 | 956 |  |  |
| CC(C)(O)c1c[nH]c(=O)c2cc3ccnc(OC[C@@H]4CCC(=O)N4)c3cc12 [I-20, (S)-4-(2-hydroxypropan-2-yl)-6-((5-oxopyrrolidin-2-yl)methoxy)pyrido[3,4-g]isoquinolin-1(2H)-one] | 6970 |  |  | 303 | 38700 |  |  |
| CC(C)c1c[nH]c(=O)c2cc3ccnc(OC[C@@H]4CCC(=O)N4)c3cc12 [I-15, (S)-4-isopropyl-6-((5-oxopyrrolidin-2-yl)methoxy)pyrido[3,4-g]isoquinolin-1(2H)-one] | 68.3 |  | 8370 | 6.2 | 501 |  |  |
| NCC#Cc1c[nH]c(=O)c2cc3ccnc(OC[C@@H]4CCC(=O)N4)c3cc12 [I-29, (S)-4-(3-aminoprop-1-yn-1-yl)-6-((5-oxopyrrolidin-2-yl)methoxy)pyrido[3,4-g]isoquinolin-1(2H)-one] | 1460 | 9090 | 34600 | 1430 | 14000 |  |  |
| O=C1CC[C@@H](COc2nccc3cc4c(=O)[nH]cc(C5CCCC5)c4cc23)N1 [I-13, (S)-4-cyclopentyl-6-((5-oxopyrrolidin-2-yl)methoxy)pyrido[3,4-g]isoquinolin-1(2H)-one] | 304 |  | 6260 | 55.9 | 8470 |  |  |
| O=C1CC[C@@H](COc2nccc3cc4c(=O)[nH]cc(CC(F)(F)F)c4cc23)N1 [I-19, (S)-6-((5-oxopyrrolidin-2-yl)methoxy)-4-(2,2,2-trifluoroethyl)pyrido[3,4-g]isoquinolin-1(2H)-one] | 208 | 177 | 14800 | 105 |  |  |  |
| CCc1c[nH]c(=O)c2cc3ccnc(OC[C@@H]4CCC(=O)N4)c3cc12 [I-8, (S)-4-ethyl-6-((5-oxopyrrolidin-2-yl)methoxy)pyrido[3,4-g]isoquinolin-1(2H)-one] | 112 | 148 | 7230 | 8.5 |  |  |  |
